Test results taken from US8785457B2 (Cellzome Limited, priority 2009, dated 2014).

Experiments:
[1] = target: T1, DNA-dependent protein kinase (DNA-PK) (Homo sapiens, UniProt P78527); assay: kinobeads assay, DNA-PK; assay type: binding; settings: kinobeads assay, Table 6; read-out: Inhibition values (IC50) DNAPK
T1 construct: endogenous in cells; host or cells: Jurkat, clone E6-1 (ATCC TIB-152) cell lysate
Procedure, shortened: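 Competitive binding in Jurkat cell lysate (5 mg/mL protein) against beads carrying an immobilized phenylmorpholin-chromen ligand, in DP buffer pH 7.4 with NP40, DTT and NaF. Bead-bound kinases were eluted and quantified by antibody dot blot with infrared detection, and IC50 was taken from dose-response curves of a 1:3 dilution series.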

[2] = system: S6RP serine-240/244 phosphorylation; assay: In vitro Phospho-S6 cellular assay (pS6RP S240/244) in HEK293T/17 cells; assay type: cell-based; settings: Homo sapiens, 2 hours, read-out: pS6 IC50
Procedure, shortened: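 HEK293T/17 cells were seeded at 40,000 (pS6RP) or 80,000 (pAkt) cells/well in DMEM with 2% FCS. They were exposed to 8 compound concentrations (0.1% DMSO) for 2 h at 37 °C and then lysed. Phosphoprotein was quantified by MesoScale electrochemiluminescence sandwich immunoassay, and the sigmoidal variable-slope dose-response was fitted.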

T1 sequence (P78527 whole entry): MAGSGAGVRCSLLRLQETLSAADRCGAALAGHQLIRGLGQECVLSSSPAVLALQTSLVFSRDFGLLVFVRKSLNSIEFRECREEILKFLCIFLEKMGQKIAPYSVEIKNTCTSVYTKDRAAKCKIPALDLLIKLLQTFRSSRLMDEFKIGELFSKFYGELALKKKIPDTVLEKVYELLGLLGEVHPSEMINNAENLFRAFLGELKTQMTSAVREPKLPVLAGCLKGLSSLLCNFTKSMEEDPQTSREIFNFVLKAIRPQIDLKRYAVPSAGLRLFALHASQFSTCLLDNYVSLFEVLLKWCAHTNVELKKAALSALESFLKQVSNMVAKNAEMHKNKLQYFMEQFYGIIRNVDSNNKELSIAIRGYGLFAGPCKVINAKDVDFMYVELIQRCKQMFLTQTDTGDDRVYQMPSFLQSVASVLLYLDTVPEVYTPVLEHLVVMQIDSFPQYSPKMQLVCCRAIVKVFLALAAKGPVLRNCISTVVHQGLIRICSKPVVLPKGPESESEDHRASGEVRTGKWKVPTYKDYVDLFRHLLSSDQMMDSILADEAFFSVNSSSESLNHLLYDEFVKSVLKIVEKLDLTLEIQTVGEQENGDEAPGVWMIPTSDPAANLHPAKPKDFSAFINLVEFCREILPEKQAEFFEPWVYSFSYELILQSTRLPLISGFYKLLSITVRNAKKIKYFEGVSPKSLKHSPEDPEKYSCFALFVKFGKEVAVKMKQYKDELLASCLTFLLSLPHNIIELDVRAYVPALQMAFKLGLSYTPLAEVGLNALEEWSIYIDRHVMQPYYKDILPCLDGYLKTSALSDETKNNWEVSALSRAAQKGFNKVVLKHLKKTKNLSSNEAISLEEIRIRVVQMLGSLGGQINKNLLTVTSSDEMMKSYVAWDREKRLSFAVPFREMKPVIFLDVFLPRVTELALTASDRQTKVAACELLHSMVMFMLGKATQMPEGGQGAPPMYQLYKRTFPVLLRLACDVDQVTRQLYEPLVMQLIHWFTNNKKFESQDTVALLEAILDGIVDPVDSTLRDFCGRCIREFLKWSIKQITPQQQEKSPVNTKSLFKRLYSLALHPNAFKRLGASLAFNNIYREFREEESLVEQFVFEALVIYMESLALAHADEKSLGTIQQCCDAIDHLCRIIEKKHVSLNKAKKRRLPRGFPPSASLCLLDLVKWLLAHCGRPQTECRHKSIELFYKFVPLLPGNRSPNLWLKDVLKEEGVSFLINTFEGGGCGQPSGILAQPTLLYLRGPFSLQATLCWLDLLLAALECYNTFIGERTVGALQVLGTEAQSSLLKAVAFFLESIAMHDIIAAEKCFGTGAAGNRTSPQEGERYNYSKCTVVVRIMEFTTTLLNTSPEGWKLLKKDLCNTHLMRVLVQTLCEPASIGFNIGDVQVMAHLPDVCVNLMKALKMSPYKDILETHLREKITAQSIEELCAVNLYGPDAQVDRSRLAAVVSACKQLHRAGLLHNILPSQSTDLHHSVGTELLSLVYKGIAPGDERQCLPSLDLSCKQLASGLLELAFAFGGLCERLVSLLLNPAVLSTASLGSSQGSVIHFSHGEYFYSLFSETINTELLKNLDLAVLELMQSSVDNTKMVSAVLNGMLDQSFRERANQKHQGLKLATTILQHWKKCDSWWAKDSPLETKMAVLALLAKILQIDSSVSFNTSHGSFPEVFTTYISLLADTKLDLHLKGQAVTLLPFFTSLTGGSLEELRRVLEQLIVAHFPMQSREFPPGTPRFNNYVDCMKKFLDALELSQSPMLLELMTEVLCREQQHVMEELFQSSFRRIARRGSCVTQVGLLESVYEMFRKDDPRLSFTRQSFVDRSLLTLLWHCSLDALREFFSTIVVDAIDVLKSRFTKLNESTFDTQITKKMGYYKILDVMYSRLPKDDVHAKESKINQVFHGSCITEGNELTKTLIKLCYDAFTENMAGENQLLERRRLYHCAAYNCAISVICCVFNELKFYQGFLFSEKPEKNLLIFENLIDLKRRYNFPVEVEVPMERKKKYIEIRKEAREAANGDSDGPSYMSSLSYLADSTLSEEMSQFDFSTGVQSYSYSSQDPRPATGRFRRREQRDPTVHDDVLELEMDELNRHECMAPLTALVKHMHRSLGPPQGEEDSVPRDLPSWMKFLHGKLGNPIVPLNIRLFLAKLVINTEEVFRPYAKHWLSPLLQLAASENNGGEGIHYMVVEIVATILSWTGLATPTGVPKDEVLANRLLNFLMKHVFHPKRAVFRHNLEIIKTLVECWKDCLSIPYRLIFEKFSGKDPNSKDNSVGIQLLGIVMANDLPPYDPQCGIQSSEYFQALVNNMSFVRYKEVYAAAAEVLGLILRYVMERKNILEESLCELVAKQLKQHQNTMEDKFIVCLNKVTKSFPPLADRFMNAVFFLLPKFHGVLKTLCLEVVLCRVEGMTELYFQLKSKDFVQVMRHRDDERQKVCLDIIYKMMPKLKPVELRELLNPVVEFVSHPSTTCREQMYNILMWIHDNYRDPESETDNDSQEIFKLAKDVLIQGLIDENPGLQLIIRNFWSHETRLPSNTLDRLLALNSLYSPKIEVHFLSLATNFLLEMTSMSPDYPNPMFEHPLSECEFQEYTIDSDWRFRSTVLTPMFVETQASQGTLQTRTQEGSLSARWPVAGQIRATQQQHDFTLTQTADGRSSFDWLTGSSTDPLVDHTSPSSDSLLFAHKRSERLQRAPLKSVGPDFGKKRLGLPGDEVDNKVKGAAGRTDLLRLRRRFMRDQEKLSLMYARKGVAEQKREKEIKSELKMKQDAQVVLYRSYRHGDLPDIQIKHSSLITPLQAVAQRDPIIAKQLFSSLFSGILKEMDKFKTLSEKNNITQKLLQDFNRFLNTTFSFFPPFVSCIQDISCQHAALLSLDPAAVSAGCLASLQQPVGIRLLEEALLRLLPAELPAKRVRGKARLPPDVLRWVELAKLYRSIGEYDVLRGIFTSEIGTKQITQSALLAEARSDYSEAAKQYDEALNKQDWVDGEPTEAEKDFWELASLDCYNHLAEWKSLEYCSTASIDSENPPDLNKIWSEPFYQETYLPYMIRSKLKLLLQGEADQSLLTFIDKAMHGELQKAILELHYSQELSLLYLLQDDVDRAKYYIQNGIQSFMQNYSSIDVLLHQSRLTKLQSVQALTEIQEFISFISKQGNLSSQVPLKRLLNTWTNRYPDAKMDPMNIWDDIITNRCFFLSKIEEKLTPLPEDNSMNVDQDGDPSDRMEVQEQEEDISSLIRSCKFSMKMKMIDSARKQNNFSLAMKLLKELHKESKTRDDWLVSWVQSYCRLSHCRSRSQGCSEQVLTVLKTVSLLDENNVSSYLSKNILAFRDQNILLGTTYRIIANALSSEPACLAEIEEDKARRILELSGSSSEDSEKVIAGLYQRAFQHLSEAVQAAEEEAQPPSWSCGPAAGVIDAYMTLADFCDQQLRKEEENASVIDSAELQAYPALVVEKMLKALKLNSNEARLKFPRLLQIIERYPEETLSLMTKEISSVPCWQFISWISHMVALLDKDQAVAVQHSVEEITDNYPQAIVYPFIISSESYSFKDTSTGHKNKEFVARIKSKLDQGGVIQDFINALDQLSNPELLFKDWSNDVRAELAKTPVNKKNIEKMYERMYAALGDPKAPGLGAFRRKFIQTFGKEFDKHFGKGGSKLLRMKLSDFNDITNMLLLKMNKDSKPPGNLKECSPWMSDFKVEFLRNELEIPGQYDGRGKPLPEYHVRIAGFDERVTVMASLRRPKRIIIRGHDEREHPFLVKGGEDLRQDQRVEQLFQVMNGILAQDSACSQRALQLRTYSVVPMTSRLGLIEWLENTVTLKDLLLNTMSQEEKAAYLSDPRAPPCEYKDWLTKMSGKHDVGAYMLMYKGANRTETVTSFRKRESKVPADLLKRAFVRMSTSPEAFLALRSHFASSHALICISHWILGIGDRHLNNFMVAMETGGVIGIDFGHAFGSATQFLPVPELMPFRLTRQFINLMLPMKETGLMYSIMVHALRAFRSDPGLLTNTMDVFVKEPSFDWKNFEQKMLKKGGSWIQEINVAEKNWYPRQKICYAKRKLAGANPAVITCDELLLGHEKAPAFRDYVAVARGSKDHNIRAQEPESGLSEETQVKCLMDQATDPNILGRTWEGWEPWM

| IC50 [1] | IC50 [2] | Structure (SMILES) |
| --- | --- | --- |
| > 10000 nM | 89 nM | C[C@H]1COCCN1c1nc(-c2ccc(NC(=O)Nc3cccc(O)n3)cc2)nc2c1CN(C)C2 [Example 80, (S)-1-(6-hydroxypyridin-2-yl)-3-(4-(6-methyl-4-(3-methylmorpholino)-6,7-dihydro-5H-pyrrolo[3,4-d]pyrimidin-2-yl)phenyl)urea] |
| > 10000 nM | 47 nM | CCNC(=O)Nc1ccc(-c2nc3c(c(N4CCOC[C@@H]4C)n2)CCN(C(=O)OC)C3)cc1 [Example 81, (S)-methyl 2-(4-(3-ethylureido)phenyl)-4-(3-methylmorpholino)-5,6-dihydropyrido[3,4-d]pyrimidine-7(8H)-carboxylate] |
| > 10000 nM | 140 nM | COC(=O)N1CCc2c(nc(-c3ccc(NC(=O)NC4CC4)cc3)nc2N2CCOC[C@@H]2C)C1 [Example 83, (S)-methyl 2-(4-(3-cyclopropylureido)phenyl)-4-(3-methylmorpholino)-5,6-dihydropyrido[3,4-d]pyrimidine-7(8H)-carboxylate] |
| > 10000 nM | 165 nM | C[C@H]1COCCN1c1nc(-c2ccc(NC(=O)Nc3ccn(C)n3)cc2)nc2c1CN(C)C2 [Example 84, (S)-1-(1-methyl-1H-pyrazol-3-yl)-3-(4-(6-methyl-4-(3-methylmorpholino)-6,7-dihydro-5H-pyrrolo[3,4-d]pyrimidin-2-yl)phenyl)urea] |
| > 10000 nM | 873 nM | CCNC(=O)Nc1ccc(-c2nc3c(c(N4CCOC[C@@H]4C)n2)CN(C)C3)cc1F [Example 85, (S)-1-ethyl-3-(2-fluoro-4-(6-methyl-4-(3-methylmorpholino)-6,7-dihydro-5H-pyrrolo[3,4-d]pyrimidin-2-yl)phenyl)urea] |
| > 10000 nM | 99 nM | COC(=O)N1Cc2nc(-c3ccc(NC(=O)NC4CC4)cc3)nc(N3CCOC[C@@H]3C)c2C1 [Example 86, (S)-methyl 2-(4-(3-cyclopropylureido)phenyl)-4-(3-methylmorpholino)-5H-pyrrolo[3,4-d]pyrimidine-6(7H)-carboxylate] |
| > 10000 nM | 108 nM | CCNC(=O)Nc1ccc(-c2nc3c(c(N4CCOC[C@@H]4C)n2)CCN(C(=O)NCC)C3)cc1 [Example 87, (S)—N-ethyl-2-(4-(3-ethylureido)phenyl)-4-(3-methylmorpholino)-5,6-dihydropyrido[3,4-d]pyrimidine-7(8H)-carboxamide] |
| > 10000 nM | 83 nM | CCNC(=O)N1CCc2c(nc(-c3ccc(NC(=O)NC4CC4)cc3)nc2N2CCOC[C@@H]2C)C1 [Example 88, (S)-2-(4-(3-cyclopropylureido)phenyl)-N-ethyl-4-(3-methylmorpholino)-5,6-dihydropyrido[3,4-d]pyrimidine-7(8H)-carboxamide] |
| 1000 to 10000 nM | 82 nM | CCNC(=O)Nc1ccc(-c2nc3c(c(N4CCOC[C@@H]4C)n2)CN(C(=O)OC)C3)cc1 [Example 89, (S)-methyl 2-(4-(3-ethylureido)phenyl)-4-(3-methylmorpholino)-5H-pyrrolo[3,4-d]pyrimidine-6(7H)-carboxylate] |
| > 10000 nM | 83 nM | CCNC(=O)Nc1ccc(-c2nc3c(c(N4CCOC[C@@H]4C)n2)CN(C(=O)OCC)C3)cc1 [Example 90, (S)-ethyl 2-(4-(3-ethylureido)phenyl)-4-(3-methylmorpholino)-5H-pyrrolo[3,4-d]pyrimidine-6(7H)-carboxylate] |
| > 10000 nM | 105 nM | CCNC(=O)Nc1ccc(-c2nc3c(c(N4CCOC[C@@H]4C)n2)CCN(C(=O)Cc2cccnc2)C3)cc1 [Example 91, (S)-1-ethyl-3-(4-(4-(3-methylmorpholino)-7-(2-(pyridin-3-yl)acetyl)-5,6,7,8-tetrahydropyrido[3,4-d]pyrimidin-2-yl)phenyl)urea] |
| > 10000 nM | 196 nM | CCNC(=O)Nc1ccc(-c2nc3c(c(N4CCOCC4)n2)CCN(C)C3)cc1 [Example 93, 1-ethyl-3-(4-(7-methyl-4-morpholino-5,6,7,8-tetrahydropyrido[3,4-d]pyrimidin-2-yl)phenyl)urea] |
| > 10000 nM | 565 nM | CCNC(=O)Nc1ccc(-c2nc3c(c(N4CCOCC4)n2)CCN(C(=O)NCC)C3)cc1 [Example 94, N-ethyl-2-(4-(3-ethylureido)phenyl)-4-morpholino-5,6-dihydropyrido[3,4-d]pyrimidine-7(8H)-carboxamide] |
| > 10000 nM | 50 nM | CCNC(=O)Nc1ccc(-c2nc3c(c(N4CCOCC4)n2)CCN(C(=O)OCC)C3)cc1 [Example 96, ethyl 2-(4-(3-ethylureido)phenyl)-4-morpholino-5,6-dihydropyrido[3,4-d]pyrimidine-7(8H)-carboxylate] |
| 1000 to 10000 nM | 338 nM | CCNC(=O)Nc1ccc(-c2nc3c(c(N4CCOCC4)n2)CCN(C(C)=O)C3)cc1 [Example 97, 1-(4-(7-acetyl-4-morpholino-5,6,7,8-tetrahydropyrido[3,4-d]pyrimidin-2-yl)phenyl)-3-ethylurea] |
| > 10000 nM | 45 nM | CCNC(=O)Nc1ccc(-c2nc3c(c(N4CCOCC4)n2)CCN(C(=O)C(C)(C)C)C3)cc1 [Example 98, 1-ethyl-3-(4-(4-morpholino-7-pivaloyl-5,6,7,8-tetrahydropyrido[3,4-d]pyrimidin-2-yl)phenyl)urea] |
| > 10000 nM | 202 nM | CCNC(=O)Nc1ccc(-c2nc3c(c(N4CCOCC4)n2)CN(C(=O)C(C)(C)C)C3)cc1 [Example 100, 1-ethyl-3-(4-(4-morpholino-6-pivaloyl-6,7-dihydro-5H-pyrrolo[3,4-d]pyrimidin-2-yl)phenyl)urea] |
| > 10000 nM | 252 nM | C[C@H]1COCCN1c1nc(-c2ccc(NC(=O)NC3CC3)cc2)nc2c1CN(CC(F)(F)F)C2 [Example 101, (S)-1-cyclopropyl-3-(4-(4-(3-methylmorpholino)-6-(2,2,2-trifluoroethyl)-6,7-dihydro-5H-pyrrolo[3,4-d]pyrimidin-2-yl)phenyl)urea] |
| > 10000 nM | 258 nM | CCNC(=O)Nc1ccc(-c2nc3c(c(N4CCOC[C@@H]4C)n2)CCN(C(=O)CO)C3)cc1 [Example 102, (S)-1-ethyl-3-(4-(7-(2-hydroxyacetyl)-4-(3-methylmorpholino)-5,6,7,8-tetrahydropyrido[3,4-d]pyrimidin-2-yl)phenyl)urea] |
| > 10000 nM | 207 nM | CCNC(=O)Nc1ccc(-c2nc3c(c(N4CCOC[C@@H]4C)n2)CN(C(=O)OCC)C3)cc1F [Example 103, (S)-ethyl-2-(4-(3-ethylureido)-3-fluorophenyl)-4-(3-methylmorpholino)-5H-pyrrolo[3,4-d]pyrimidine-6(7H)-carboxylate] |
| > 10000 nM | 390 nM | CCOC(=O)N1Cc2nc(-c3ccc(NC(=O)NCCO)c(F)c3)nc(N3CCOC[C@@H]3C)c2C1 [Example 104, (S)-ethyl-2-(3-fluoro-4-(3-(2-hydroxyethyl)ureido)phenyl)-4-(3-methylmorpholino)-5H-pyrrolo[3,4-d]pyrimidine-6(7H)-carboxylate] |
| > 10000 nM | 414 nM | CCOC(=O)N1Cc2nc(-c3ccc(NC(=O)NC4CC4)c(F)c3)nc(N3CCOC[C@@H]3C)c2C1 [Example 105, (S)-ethyl 2-(4-(3-cyclopropylureido)-3-fluorophenyl)-4-(3-methylmorpholino)-5H-pyrrolo[3,4-d]pyrimidine-6(7H)-carboxylate] |
| > 10000 nM | 294 nM | CCNC(=O)Nc1ncc(-c2nc3c(c(N4CCOC[C@@H]4C)n2)CCN(C)C3)s1 [Example 106, (S)-1-ethyl-3-(5-(7-methyl-4-(3-methylmorpholino)-5,6,7,8-tetrahydropyrido[3,4-d]pyrimidin-2-yl)thiazol-2-yl)urea] |
| > 10000 nM | 159 nM | CCNC(=O)Nc1ccc(-c2nc3c(c(N4CCOC[C@@H]4C)n2)CN(C(=O)OCC)CC3)cc1 [Example 107, (S)-ethyl 2-(4-(3-ethylureido)phenyl)-4-(3-methylmorpholino)-7,8-dihydropyrido[4,3-d]pyrimidine-6(5H)-carboxylate] |
| > 10000 nM | 935 nM | CCNC(=O)Nc1cc(F)c(-c2nc3c(c(N4CCOC[C@@H]4C)n2)CCN(C)C3)cc1F [Example 108, (S)-1-(2,5-difluoro-4-(7-methyl-4-(3-methylmorpholino)-5,6,7,8-tetrahydropyrido[3,4-d]pyrimidin-2-yl)phenyl)-3-ethylurea] |
| > 10000 nM | 192 nM | CCNC(=O)Nc1ccc(-c2nc3c(c(N4CCOC[C@@H]4C)n2)CCN(C)C3)c(F)c1 [Example 110, (S)-1-ethyl-3-(3-fluoro-4-(7-methyl-4-(3-methylmorpholino)-5,6,7,8-tetrahydropyrido[3,4-d]pyrimidin-2-yl)phenyl)urea] |
| > 10000 nM | 77 nM | CCNC(=O)Nc1ccc(-c2nc3c(c(N4CCOC[C@@H]4C)n2)CN(C(=O)OCC)C3)c(F)c1 [Example 113, (S)-ethyl-2-(4-(3-ethylureido)-2-fluorophenyl)-4-(3-methylmorpholino)-5H-pyrrolo[3,4-d]pyrimidine-6(7H)-carboxylate] |
| > 10000 nM | 25 nM | CCOC(=O)N1Cc2nc(-c3ccc(NC(=O)NCCF)cc3)nc(N3CCOC[C@@H]3C)c2C1 [Example 120, (S)-ethyl 2-(4-(3-(2-fluoroethyl)ureido)phenyl)-4-(3-methylmorpholino)-5H-pyrrolo[3,4-d]pyrimidine-6(7H)-carboxylate] |
